Test results: the SangsterLogP compilation

What was measured:
[1] = method code SF-HPLC, from DOI: 10.1021/jm9509197, PMID: 8648601; settings: pH 7.4
[2] = method code SF-AS, from Lippold, B.; Lichey, J. (1984). Transport of drugs through lipophilic polymer membranes. II. Influence of the partition and diffusion coefficients. Acta pharmaceutica technologica, 30(2)140-154.
[3] = method code SF-RC, from DOI: 10.1002/jlcr.2580210110; settings: pH 7.4
[4] = not given; remark: listed apart in the source
[5] = method code SF-AS/HPLC, from Ellington, J. J. (1988). Octanol/water partition coefficients for evaluation of hazardous waste land disposal: Selected chemicals. US Environmental Protection Agency, Environmental Research …
[6] = method code SF-HPLC, from DOI: 10.1177/074823378700300403, PMID: 3433285
[7] = method code SF-AS, from DOI: 10.1007/bf02273190
[8] = not given; remark: listed apart in the source
[9] = method code SF, from DOI: 10.1021/js9700917, PMID: 9452977; settings: pH 5.5
[10] = method code SF-NMR, from DOI: 10.1016/j.jpba.2012.12.010, PMID: 23298914
[11] = method code SF-GLC, from DOI: 10.1016/j.chemosphere.2005.05.003, PMID: 15967478
[12] = method code SF-GLC, from DOI: 10.1021/jm00366a019, PMID: 6644745
[13] = method code SF-GLC, from DOI: 10.1007/bf00212402, PMID: 7663085
[14] = not given; remark: listed apart in the source
[15] = method code SF-AS, from DOI: 10.1021/bi00405a042
[16] = not given; remark: listed apart in the source
[17] = method code SF-AS, from DOI: 10.1021/jm00051a006, PMID: 7996541
[18] = method code SF, from DOI: 10.1016/0378-5173(86)90155-9; settings: pH 7.0
[19] = method code SF-AS, from DOI: 10.1016/0006-2952(81)90362-2, PMID: 7271838; settings: pH 7.5
[20] = method code SF-GLC, from DOI: 10.1021/es60128a001
[21] = method code SF-AS, from DOI: 10.1021/acs.inorgchem.5b01238, PMID: 26280387
[22] = not given; remark: listed apart in the source
[23] = not given; remark: listed apart in the source
[24] = method code SF-HPLC, from DOI: 10.1016/j.ejps.2015.05.008, PMID: 25968358; settings: pH 7.4
[25] = method code SF-AS, from DOI: 10.1016/0005-2736(69)90054-6, PMID: 5349616; settings: pH 7.4
[26] = method code SF-HPLC, from DOI: 10.1161/01.res.55.4.513, PMID: 6478555
[27] = method code SF, from DOI: 10.1016/s0378-5173(98)00231-2
[28] = method code SF, from DOI: 10.1248/yakushi1947.93.11_1452, PMID: 4273378
[29] = method code SF-AS, from DOI: 10.1039/ft9959100995
[30] = not given; remark: listed apart in the source
[31] = not given; remark: listed apart in the source
[32] = method code SF-HPLC, from DOI: 10.1016/0378-5173(90)90184-6; settings: pH 4.0
[33] = method code SF, from DOI: 10.1038/bjc.1982.190, PMID: 7150475
[34] = not given; remark: listed apart in the source
[35] = method code SF-HPLC, from DOI: 10.1016/0168-3659(92)90067-2

## Nc1c2ncn(C3OC(CO)CC3F)c2nc[n+]1[O-] (stereo unspecified)
[1]
  logD: -0.98

## CCCCNC(=O)NS(=O)(=O)c1ccc(N)cc1
[2]
  logP: 1.18

## FC12CC3CC(CC(C3)C1)C2
[3]
  logD: 5.7

## Cc1cc(Cl)ccc1OCCCC(=O)O
other
  logP: 3.28

## Cc1cn([C@H]2C[C@H](N=[N+]=[N-])[C@@H](CO)O2)c(=O)[nH]c1=O
[4]
  logP: -0.09

## C#CC(C)(C)NC(=O)c1cc(Cl)cc(Cl)c1
[5]
  logP: 3.43

## CCN(CC)C(=O)c1ccccc1C
[6]
  logP: 2.02

## CCC(=O)N(C)c1ccc(S(=O)(=O)N(C)C)cc1
[7]
  logP: 0.71

## CC(C)(N)Cc1ccccc1
[8]
  logP: 1.9

## CC(=O)N(C)c1ccc(S(=O)(=O)N(C)C)cc1
[7]
  logP: 0.23

## NS(=O)(=O)c1ncncc1-c1ccccc1
[9]
  logD: 0.5

## COC(=O)[C@@H](N)Cc1ccc(O)c(I)c1
[10]; pH 7.7
  logD: 0.26

## C=C1CCC2CC1C2(C)C (stereo unspecified)
[11]
  logP: 4.43

## N[C@@H]1C[C@@H]2C[C@H]1c1ccc(C(F)(F)F)cc12
[12]; pH 12.0
  logD: 3.21

## ClC1=C(Cl)C2(Cl)C3CC=CC3C1(Cl)C2(Cl)Cl (stereo unspecified)
[13]
  logP: 5.57

## OCCC(F)(F)C(F)(F)C(F)(F)C(F)(F)C(F)(F)C(F)(F)C(F)(F)C(F)(F)F
[14]
  logP: 6.14

## CC(C1=C(CCN(C)C)Cc2ccccc21)c1ccccn1 (stereo unspecified)
[2]
  logP: 2.7

## CC(=O)NCCc1c[nH]c2ccccc12
[15]
  logP: 1.41

## CNC1CC2c3ccccc3C1C2O (stereo unspecified)
[12]; pH 13.0
  logD: 0.91

## COC(C)(C(=O)O)c1ccc2ccccc2c1 (stereo unspecified)
[16]
  logP: 3.18

## O=C(O)c1ccc2ccccc2c1
[16]
  logP: 3.1

## CO[C@H]1N([C@H]2C[C@H](N=[N+]=[N-])[C@@H](CO)O2)C(=O)NC(=O)[C@@]1(C)Cl
[17]
  logP: 0.52

## CS(=O)CCCOc1ccc([N+](=O)[O-])cc1 (stereo unspecified)
[18]
  logD: 0.93

## Cc1cc(Cl)ccc1OC(C)C(=O)O (stereo unspecified)
other
  logP: 2.95

## FC(F)(c1ccccc1)C(F)(F)c1ccccc1
[3]
  logD: 5

## CCCCOC(=O)c1ccc(O)cc1
[19]
  logD: 3.32

## Cc1nc(NS(=O)(=O)c2ccc(N)cc2)oc1C
[9]
  logD: 0.2

## CCOP(=S)(OCC)Oc1ccc(Cl)cc1Cl
[20]
  logP: 5.14

## CCSC(=S)C=C(O)c1ccc(O)cc1
[21]
  logP: 1.97

## CN1C[C@@H](N)C[C@@H]2c3cccc4[nH]cc(c34)C[C@H]21
[22]
  logP: 0.4

## O=C(C(=O)c1ccc(Cl)cc1)c1ccccc1
[23]
  logP: 2.6

## CCCCC(=O)c1ccccc1
[24]
  logD: 3.03

## COC(=O)[C@@H](N)Cc1cc(I)c(O)c(I)c1
[10]; pH 6.7
  logD: 0.95

## CC(C)(N)Cc1ccc(Cl)cc1
[8]
  logP: 2.6

## Cc1cc2ccccc2n1C
[25]
  logD: 2.82

## Cc1cccc(C)c1NC(=O)CN
[26]
  logP: 0.41

## OCCCCCCCc1ccccc1
[27]
  logP: 3.59

## CCN(CC)C(=O)c1cccnc1
[28]
  logP: 0.86

## C=Cc1ccc(C=C)cc1
[23]
  logP: 3.2

## CC(=O)OCCOCn1cnc2c(=O)[nH]c(N)nc21
[29]
  logP: -1.07

## CCSC(=S)C=C(O)c1ccccc1
[21]
  logP: 1.93

## COP(=S)(OC)SCn1nnc2ccccc2c1=O
[6]
  logP: 2.43

## c1ccc2c(c1)Nc1ccccc1S2
[24]
  logD: 3.97

## CC(=O)OC[C@H]1O[C@@H](n2cc(C)c(=O)[nH]c2=O)C[C@@H]1O
[4]
  logP: -0.25

## CCNCC(=O)Nc1c(C)cccc1C
[26]
  logP: 1.32

## Nc1ccc2c(S(=O)(=O)O)cc(S(=O)(=O)O)cc2c1
[30]
  logP: -1.6

## OCCCCc1ccccc1
[27]
  logP: 2.33

## CC(=O)Nc1ncc2ncn(COCCO)c2n1
[29]
  logP: -1.33

## O=[N+]([O-])c1ncnc2c1ncn2C1OC(CO)CC1F (stereo unspecified)
[1]
  logD: -0.4

## C=C1C=CC(C(C)C)CC1 (stereo unspecified)
[11]
  logP: 4.59

## ClC1=C(Cl)C2(Cl)C3C4OC4C(Cl)C3C1(Cl)C2(Cl)Cl (stereo unspecified)
[31]
  logP: 5.4

## CCCCCCNC(=O)n1cc(F)c(=O)[nH]c1=O
[32]
  logD: 2.63

## c1ccc2c(c1)[nH]c1ccccc12
[25]
  logD: 3.29

## CCOP(=S)(OCC)SCn1c(=O)oc2cc(Cl)ccc21
[20]
  logP: 4.3

## CCCCCCCCNC(=O)n1cc(F)c(=O)[nH]c1=O
[32]
  logD: 3.9

## CC(C)N(C(=O)SC/C(Cl)=C/Cl)C(C)C
[5]
  logP: 4.49

## CN(C)CCSCc1ccccc1
[22]
  logP: 1.81

## CCCCOC(=O)c1ccc(N)cc1
[19]
  logD: 3.05

## CCCCOCC(O)Cn1ccnc1[N+](=O)[O-] (stereo unspecified)
[33]; pH 7.4
  logD: 1.11

## O=C(NCc1ccc(O)cc1)c1ccccc1
[18]
  logD: 1.87

## COC(=O)c1ccccc1C(=O)OC
[34]
  logP: 1.9

## CCCCNC(=O)c1cccnc1
[28]
  logP: 0.9

## CC(=O)NC(Cc1ccc(O)cc1)C(N)=O (stereo unspecified)
[35]
  logP: -0.7

## CCCCCCOC(=O)c1ccccc1C(=O)OCCCCCC
[34]
  logP: 5.8

## CC(=O)NCCc1ccccc1
[15]
  logP: 1.19

## COc1ccc(C[C@H](NC(C)=O)C(=O)N[C@H](Cc2ccc(OC)cc2)C(N)=O)cc1
[35]
  logP: 1.19

## OCCC(F)(F)C(F)(F)C(F)(F)C(F)(F)C(F)(F)C(F)(F)C(F)(F)C(F)(F)C(F)(F)C(F)(F)F
[14]
  logP: 7.57

## O=[N+]([O-])c1nccn1CC(O)CN1CCCCC1 (stereo unspecified)
[33]
  logP: 0.93

## ClC1=C(Cl)C2(Cl)C3C(Cl)C(Cl)(Cl)CC3C1(Cl)C2(Cl)Cl (stereo unspecified)
[13]
  logP: 6.06

## O=S(=O)(O)c1ccc(-c2ccc(S(=O)(=O)O)cc2)cc1
[30]
  logP: 0.3

## CO[C@@H]1N([C@H]2C[C@H](N=[N+]=[N-])[C@@H](CO)O2)C(=O)NC(=O)[C@@]1(C)Br
[17]
  logP: 1.22
